Measured values published in the NIST ThermoML archive (doi:10.1016/j.tca.2017.04.014).

Key:
[1] = 298.15 K, 101.3 kPa, Crystal
[2] = molar heat capacity at constant pressure; details: 101.33 kPa, Crystal, DSC
[3] = xn = mol fraction of the nth substance listed; details: 298.15 K, 101.3 kPa, Crystal, x2 = 0
[4] = molar heat capacity at constant pressure; xn = mol fraction of the nth substance listed; details: 101.3 kPa, Crystal, DSC, x2 = 0

[O-2].[O-2].[Th+4] [thorium dioxide]
Details | mass density [kg/m3] | molar heat capacity at constant pressure [J/K/mol]
[1], From pellet mass and volume | 9390 | –
[1], X-ray diffraction | 10000 | –
[1], buoyancy | 9430 | –
[2], 300 K | – | 62.1
[2], 310 K | – | 61.8
[2], 320 K | – | 62.8
[2], 330 K | – | 63.5
[2], 340 K | – | 64.2
[2], 350 K | – | 65.1
[2], 360 K | – | 65.6
[2], 370 K | – | 65.9
[2], 380 K | – | 66.8
[2], 390 K | – | 67.3
[2], 400 K | – | 67.7
[2], 410 K | – | 68
[2], 420 K | – | 68.4
[2], 430 K | – | 68.6
[2], 440 K | – | 68.9
[2], 450 K | – | 69.6
[2], 460 K | – | 69.8
[2], 470 K | – | 70.1
[2], 480 K | – | 70.2
[2], 490 K | – | 70.5
[2], 500 K | – | 70.7
[2], 510 K | – | 70.9
[2], 520 K | – | 71.2
[2], 530 K | – | 71.4
[2], 540 K | – | 71.7
[2], 550 K | – | 71.9
[2], 560 K | – | 72
[2], 570 K | – | 72.1
[2], 580 K | – | 72.3
[2], 590 K | – | 72.5
[2], 600 K | – | 72.5
[2], 610 K | – | 72.5
[2], 620 K | – | 73
[2], 630 K | – | 73
[2], 640 K | – | 73.3
[2], 650 K | – | 73.6
[2], 660 K | – | 73.5
[2], 670 K | – | 73.6
[2], 680 K | – | 73.6
[2], 690 K | – | 73.4
[2], 700 K | – | 73.8
[2], 710 K | – | 74.5
[2], 720 K | – | 74.5
[2], 730 K | – | 74.6
[2], 739 K | – | 74.7
[2], 750 K | – | 74.6
[2], 760 K | – | 75
[2], 770 K | – | 75.3
[2], 780 K | – | 75.3
[2], 790 K | – | 75.3
[2], 800 K | – | 75.7
[2], 810 K | – | 75.7
[2], 820 K | – | 75.7
[2], 830 K | – | 75.9
[2], 840 K | – | 76
[2], 850 K | – | 76.1
[2], 860 K | – | 76.4
[2], 870 K | – | 76.1

[O-2].[O-2].[U+4] [uranium dioxide]
Details | mass density [kg/m3] | molar heat capacity at constant pressure [J/K/mol]
[1], From pellet mass and volume | 10570 | –
[1], X-ray diffraction | 10970 | –
[1], buoyancy | 10660 | –
[2], 300 K | – | 64.6
[2], 310 K | – | 66.2
[2], 320 K | – | 66.8
[2], 330 K | – | 67.7
[2], 340 K | – | 68.7
[2], 350 K | – | 69.1
[2], 360 K | – | 69.5
[2], 370 K | – | 70.5
[2], 380 K | – | 71.2
[2], 390 K | – | 71.2
[2], 400 K | – | 72.5
[2], 410 K | – | 72.8
[2], 420 K | – | 73.4
[2], 430 K | – | 73.5
[2], 440 K | – | 74.4
[2], 450 K | – | 74.6
[2], 460 K | – | 74.9
[2], 470 K | – | 75.5
[2], 480 K | – | 76.2
[2], 490 K | – | 76.4
[2], 500 K | – | 76.5
[2], 510 K | – | 76.6
[2], 520 K | – | 76.7
[2], 530 K | – | 77.1
[2], 540 K | – | 77
[2], 550 K | – | 77.1
[2], 560 K | – | 77.3
[2], 570 K | – | 77.9
[2], 580 K | – | 78.2
[2], 590 K | – | 79
[2], 600 K | – | 79.1
[2], 610 K | – | 79.7
[2], 620 K | – | 79.4
[2], 630 K | – | 79.6
[2], 640 K | – | 80.3
[2], 650 K | – | 79.8
[2], 660 K | – | 80.5
[2], 670 K | – | 80.5
[2], 680 K | – | 80.7
[2], 690 K | – | 81.1
[2], 700 K | – | 80.4
[2], 710 K | – | 80.8
[2], 720 K | – | 81.2
[2], 730 K | – | 81.7
[2], 740 K | – | 82.2
[2], 750 K | – | 82.9
[2], 760 K | – | 82.4
[2], 770 K | – | 82.7
[2], 780 K | – | 83.4
[2], 790 K | – | 83.9
[2], 800 K | – | 83.7
[2], 810 K | – | 84.1
[2], 820 K | – | 83.8
[2], 830 K | – | 84.2
[2], 840 K | – | 84.1
[2], 850 K | – | 83.7
[2], 860 K | – | 84.1
[2], 870 K | – | 84.5

[O-2].[O-2].[U+4] [uranium dioxide] + [O-2].[O-2].[Th+4]
Details | mass density [kg/m3] | molar heat capacity at constant pressure [J/K/mol]
[3], From pellet mass and volume | 10570 | –
[3], X-ray diffraction | 10970 | –
[3], buoyancy | 10660 | –
[4], 300 K | – | 64.6
[4], 310 K | – | 66.2
[4], 320 K | – | 66.8
[4], 330 K | – | 67.7
[4], 340 K | – | 68.7
[4], 350 K | – | 69.1
[4], 360 K | – | 69.5
[4], 370 K | – | 70.5
[4], 380 K | – | 71.2
[4], 390 K | – | 71.2
[4], 400 K | – | 72.5
[4], 410 K | – | 72.8
[4], 420 K | – | 73.4
[4], 430 K | – | 73.5
[4], 440 K | – | 74.4
[4], 450 K | – | 74.6
[4], 460 K | – | 74.9
[4], 470 K | – | 75.5
[4], 480 K | – | 76.2
[4], 490 K | – | 76.4
[4], 500 K | – | 76.5
[4], 510 K | – | 76.6
[4], 520 K | – | 76.7
[4], 530 K | – | 77.1
[4], 540 K | – | 77
[4], 550 K | – | 77.1
[4], 560 K | – | 77.3
[4], 570 K | – | 77.9
[4], 580 K | – | 78.2
[4], 590 K | – | 79
[4], 600 K | – | 79.1
[4], 610 K | – | 79.7
[4], 620 K | – | 79.4
[4], 630 K | – | 79.6
[4], 640 K | – | 80.3
[4], 650 K | – | 79.8
[4], 660 K | – | 80.5
[4], 670 K | – | 80.5
[4], 680 K | – | 80.7
[4], 690 K | – | 81.1
[4], 700 K | – | 80.4
[4], 710 K | – | 80.8
[4], 720 K | – | 81.2
[4], 730 K | – | 81.7
[4], 740 K | – | 82.2
[4], 750 K | – | 82.9
[4], 760 K | – | 82.4
[4], 770 K | – | 82.7
[4], 780 K | – | 83.4
[4], 790 K | – | 83.9
[4], 800 K | – | 83.7
[4], 810 K | – | 84.1
[4], 820 K | – | 83.8
[4], 830 K | – | 84.2
[4], 840 K | – | 84.1
[4], 850 K | – | 83.7
[4], 860 K | – | 84.1
[4], 870 K | – | 84.5
